*1 amine or outer side, *2 acyl side, *3 side chain or, on linkers, in order; H or OH if unused. Where a SMILES comes first, the peptide text is derived from it. Bridges are numbered along the chain shown (N, C = ends). [ ]: non-standard residue; d: D form. The star is where a group is joined. GdDOTA = Gd(III) DOTA conjugate, O=C([O-])CN1CCN(CC(=O)[O-])CCN(CC(=O)*)CCN(CC(=O)[O-])CC1.[Gd+3]; DOTA(In) = O=C1CN2CCN3CCN(CC(=O)*)CCN(CC2)CC(=O)[O][In]([O]1)[O]C(=O)C3; DOTA(Lu) = O=C1CN2CCN3CCN(CC(=O)*)CCN(CC2)CC(=O)[O][Lu]([O]1)[O]C(=O)C3; DOTA = O=C(O)CN1CCN(CC(=O)O)CCN(CC(=O)*)CCN(CC(=O)O)CC1; Pro(trans-4-F) = O=C(O)[C@@H]1C[C@@H](F)CN1; Phe(4-Cl) = N[C@@H](Cc1ccc(Cl)cc1)C(=O)O; Pro(cis-4-F) = O=C(O)[C@@H]1C[C@H](F)CN1; Hyp = O=C(O)[C@@H]1C[C@@H](O)CN1; hPhe = N[C@@H](CCc1ccccc1)C(=O)O; tBuAla = CC(C)(C)C[C@H](N)C(=O)O; αMeF = C[C@](N)(Cc1ccccc1)C(=O)O; LaDOTA = La(III) DOTA conjugate; Pentanoyl(4-Me) = CC(C)CCC(=O)*; Cit = NC(=O)NCCC[C@H](N)C(=O)O; Cysteamide = C(CS[*:3])N[*:1]; NMeL = CN[C@@H](CC(C)C)C(=O)O; αMeL = CC(C)C[C@](C)(N)C(=O)O; Butoxycarbonyl = CCCCOC(=O)*; Chg = N[C@H](C(=O)O)C1CCCCC1; Ac6c = NC1(C(=O)O)CCCCC1; Nva = CCC[C@H](N)C(=O)O; Pentanoyl = CCCCC(=O)*; Aib = CC(C)(N)C(=O)O
Legend:
[1] = target: T1, uPAR-expressing HEC-265 human endometrial adenocarcinoma cells (Homo sapiens, UniProt Q03405); assay: Competitive FACS binding assay; conditions: pIC50 category of FACS binding
T1 construct: Cell surface uPAR-expressing HEC-265 human endometrial adenocarcinoma cells; host or cells: HEC-265
Outline: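 Competitive displacement of a 10 nM biotinylated peptide from HEC-265 cells (1 h, 4 °C, PBS/1% BSA), detected via APC-streptavidin by flow cytometry. pIC50 from four-parameter logistic fit of median fluorescence versus concentration.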

human uPAR (uPAR-Fc) = target: T2, human uPAR (uPAR-Fc) (Homo sapiens, UniProt Q03405); assay: Surface plasmon resonance (SPR) assay, single cycle kinetics; assay type: binding; conditions: pKD category for uPAR SPR activity assay, uPAR-Fc on Protein A-Chip, 25°C; for Kd: read-out: pKD CAT (converted)
T2 construct: comprising amino acids Leu23-Arg303 according to UniProt entry Q03405.1; purchased R&D Systems 10378-UK-100
Outline: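 uPAR-Fc (Leu23-Arg303 extracellular domains, human IgG1 Fc) captured on Protein A chip to ~2000 RU; single-cycle kinetics at 25°C in HEPES running buffer pH 7.4 with 0.1% DMSO. KD from double-referenced sensorgrams fitted to 1:1 Langmuir model, reported as pKD.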

T2 sequence (Q03405 23-303): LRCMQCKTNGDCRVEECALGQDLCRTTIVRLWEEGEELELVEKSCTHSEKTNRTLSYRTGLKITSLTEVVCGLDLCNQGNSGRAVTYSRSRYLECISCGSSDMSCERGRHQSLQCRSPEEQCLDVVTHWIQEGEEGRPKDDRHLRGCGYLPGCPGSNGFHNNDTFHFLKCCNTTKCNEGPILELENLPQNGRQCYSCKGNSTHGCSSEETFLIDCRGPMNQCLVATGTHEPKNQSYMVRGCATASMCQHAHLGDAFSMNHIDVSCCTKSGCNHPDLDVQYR
T1 sequence (Q03405 23-335): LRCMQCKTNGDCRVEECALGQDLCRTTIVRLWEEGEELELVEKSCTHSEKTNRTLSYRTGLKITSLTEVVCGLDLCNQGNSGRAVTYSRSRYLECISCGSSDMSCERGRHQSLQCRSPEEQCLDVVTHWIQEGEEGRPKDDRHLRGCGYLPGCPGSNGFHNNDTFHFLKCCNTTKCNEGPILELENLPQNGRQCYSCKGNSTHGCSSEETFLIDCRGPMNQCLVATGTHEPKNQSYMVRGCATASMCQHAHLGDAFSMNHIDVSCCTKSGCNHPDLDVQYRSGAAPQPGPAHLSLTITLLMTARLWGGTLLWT

Row | Compound | IC50 [1] | Kd (human uPAR (uPAR-Fc); single cycle kinetics) | pIC50 CAT [1] | pKD CAT (human uPAR (uPAR-Fc)) | pKD CAT (human uPAR (uPAR-Fc); single cycle kinetics)
1 | CCCCOC(=O)N[C@H]1CSSC[C@@H](C(N)=O)NC(=O)[C@H](CCC)NC(=O)[C@H](C2CCCCC2)NC(=O)[C@@H]2C[C@@H](O)CN2C(=O)[C@@H]2C[C@H](F)CN2C(=O)[C@H](Cc2ccc(Cl)cc2)NC(=O)[C@H](Cc2ccc(O)cc2)NC(=O)[C@H](CCCCNC(=O)CN2CCN(CC(=O)O)CCN(CC(=O)O)CCN(CC(=O)O)CC2)NC(=O)[C@H](CCCNC(N)=O)NC1=O [UPAR-476, Butoc-[Cys-Cit-Lys(DOTA)-Tyr-Pcf-4Cfp-Hyp-Chg-Nva-Cys]-NH2] (Butoxycarbonyl-C[Cit]K(DOTA)Y[Phe(4-Cl)][Pro(cis-4-F)][Hyp][Chg][Nva]C-NH2; disulfide 1-10) | ≤ 10 nM | < 1.58 nM |  |  | 
2 | CC[C@H](C)[C@@H]1NC(=O)[C@@H](C)NC(=O)[C@@H]2CCCN2C(=O)[C@H](Cc2ccccc2)NC(=O)[C@H](Cc2ccc(O)cc2)NC(=O)[C@H](CCC(N)=O)NC(=O)[C@H](CCCNC(N)=O)NC(=O)[C@@H](NC(=O)CCC(C)C)CSSC[C@@H](C(N)=O)NC(=O)[C@H](CC(C)(C)C)NC1=O [UPAR-477, iHex-[Cys-Cit-Gln-Tyr-Phe-Pro-ala-Ile-Npg-Cys]-NH2] ({Pentanoyl(4-Me)}-C[Cit]QYFP[dA]I[tBuAla]C-NH2; disulfide 1-10) | 39.8 to 100 nM | 10 to 100 nM |  |  | 
3 | CCCCC(=O)N[C@H]1CSSC[C@@H](C(N)=O)NC(=O)[C@H](CCC)NC(=O)[C@H]([C@@H](C)CC)NC(=O)[C@@H]2C[C@@H](O)CN2C(=O)[C@@H]2CCCN2C(=O)[C@H](Cc2ccccc2)NC(=O)[C@](C)(Cc2ccccc2)NC(=O)[C@H](CCC(N)=O)NC(=O)[C@H](CCCNC(=N)N)NC1=O [UPAR-478, Pent-[Cys-Arg-Gln-Amf-Phe-Pro-Hyp-Ile-Nva-Cys]-NH2] (Pentanoyl-CRQ[αMeF]FP[Hyp]I[Nva]C-NH2; disulfide 1-10) | 39.8 to 100 nM | 10 to 100 nM |  |  | 
4 | CCCCC(=O)N[C@H]1CSSC[C@@H](C(N)=O)NC(=O)[C@H](CC(C)C)N(C)C(=O)[C@H]([C@@H](C)CC)NC(=O)[C@@H]2C[C@@H](O)CN2C(=O)[C@@H]2CCCN2C(=O)[C@H](Cc2ccccc2)NC(=O)[C@H](Cc2ccc(O)cc2)NC(=O)[C@H](CCC(N)=O)NC(=O)[C@H](CCCNC(=N)N)NC1=O [UPAR-480, Pent-[Cys-Arg-Gln-Tyr-Phe-Pro-Hyp-Ile-Nml-Cys]-NH2] (Pentanoyl-CRQYFP[Hyp]I[NMeL]C-NH2; disulfide 1-10) | ≥ 126 nM | > 100 nM |  |  | 
5 | CCCCC(=O)N[C@H]1CSSCCNC(=O)[C@H](CCC)NC(=O)[C@H]([C@@H](C)CC)NC(=O)[C@@H]2C[C@@H](O)CN2C(=O)[C@@H]2CCCN2C(=O)[C@H](Cc2ccccc2)NC(=O)[C@H](Cc2ccc(O)cc2)NC(=O)[C@H](CCC(N)=O)NC(=O)[C@H](CCCNC(=N)N)NC1=O [UPAR-481, Pent-[Cys-Arg-Gln-Tyr-Phe-Pro-Hyp-Ile-Nva-AET]] (Pentanoyl-CRQYFP[Hyp]I[Nva]-Cysteamide; disulfide 1-C) | ≤ 10 nM | < 1.58 nM |  |  | 
6 | CCC[C@@H]1NC(=O)[C@H]([C@@H](C)CC)NC(=O)[C@@H]2C[C@@H](O)CN2C(=O)[C@@H]2CCCN2C(=O)[C@H](Cc2ccccc2)NC(=O)[C@H](Cc2ccc(O)cc2)NC(=O)[C@H](CCC(N)=O)NC(=O)[C@H](CCCNC(=N)N)NC(=O)[C@@H](NC(=O)C2(NC(C)=O)CCCCC2)CSSC[C@@H](C(N)=O)NC1=O [UPAR-482, Ac-Egz-[Cys-Arg-Gln-Tyr-Phe-Pro-Hyp-Ile-Nva-Cys]-NH2] (Ac-[Ac6c]CRQYFP[Hyp]I[Nva]C-NH2; disulfide 2-11) | ≤ 10 nM | < 1.58 nM |  |  | 
7 | CCC[C@@H]1NC(=O)[C@H]([C@@H](C)CC)NC(=O)[C@@H]2C[C@@H](O)CN2C(=O)[C@@H]2CCCN2C(=O)[C@H](Cc2ccccc2)NC(=O)[C@H](Cc2ccc(O)cc2)NC(=O)[C@H](CCC(N)=O)NC(=O)[C@H](CCCNC(=N)N)NC(=O)[C@@H](NC(=O)[C@H](CC(C)C)N(C)C(C)=O)CSSC[C@@H](C(N)=O)NC1=O [UPAR-483, Ac-Nml-[Cys-Arg-Gln-Tyr-Phe-Pro-Hyp-Ile-Nva-Cys]-NH2] (Ac-[NMeL]CRQYFP[Hyp]I[Nva]C-NH2; disulfide 2-11) | ≤ 10 nM | < 1.58 nM |  |  | 
8 | CCC[C@@H]1NC(=O)[C@H]([C@@H](C)CC)NC(=O)[C@@H]2C[C@@H](O)CN2C(=O)[C@@H]2CCCN2C(=O)[C@H](Cc2ccccc2)NC(=O)[C@H](Cc2ccc(O)cc2)NC(=O)[C@H](CCC(N)=O)NC(=O)[C@H](CCCNC(=N)N)NC(=O)[C@@H](NC(=O)[C@H](CCc2ccccc2)NC(C)=O)CSSC[C@@H](C(N)=O)NC1=O [UPAR-484, Ac-Hfe-[Cys-Arg-Gln-Tyr-Phe-Pro-Hyp-Ile-Nva-Cys]-NH2] (Ac-[hPhe]CRQYFP[Hyp]I[Nva]C-NH2; disulfide 2-11) | ≤ 10 nM | 1.58 to 10 nM |  |  | 
9 | CCC[C@@H]1NC(=O)[C@H]([C@@H](C)CC)NC(=O)[C@@H]2C[C@@H](O)CN2C(=O)[C@@H]2CCCN2C(=O)[C@H](Cc2ccccc2)NC(=O)[C@H](Cc2ccc(O)cc2)NC(=O)[C@H](CCC(N)=O)NC(=O)[C@H](CCCNC(=N)N)NC(=O)[C@@H](NC(=O)[C@](C)(CC(C)C)NC(C)=O)CSSC[C@@H](C(N)=O)NC1=O [UPAR-485, Ac-Aml-[Cys-Arg-Gln-Tyr-Phe-Pro-Hyp-Ile-Nva-Cys]-NH2] (Ac-[αMeL]CRQYFP[Hyp]I[Nva]C-NH2; disulfide 2-11) | ≤ 10 nM | < 1.58 nM |  |  | 
10 | Butoc-[Cys-Cit-Lys(LuDOTA)-Tyr-Pcf-4Cfp-Hyp-Chg-Nva-Cys]-NH2 [UPAR-169] |  |  | A (pIC50 values ≥8.0) | A (pKD values ≥ 8.8) | 
11 | Butoc-[Cys-Cit-Lys(LuDOTA)-Tyr-Pcf-4Cfp-Hyp-Ile-Nva-Cys]-NH2 [UPAR-369] |  |  | A (pIC50 values ≥8.0) |  | A (pKD values ≥ 8.8)
12 | Pent-[Cys-Asn-Lys(LuDOTA)-Tyr-Phe-Pro-Hyp-Ile-Nva-Cys]-NH2 (Pentanoyl-CNK(DOTA(Lu))YFP[Hyp]I[Nva]C-NH2; disulfide 1-10; not fully specified; also: Lu(III) complexed by DOTA) [UPAR-335] |  |  | A (pIC50 values ≥8.0) | A (pKD values ≥ 8.8) | 
13 | Pent-[Cys-Cit-Lys(GdDOTA)-Mpa-Phe-Pro-Hyp-Ile-Nva-Cys]-NH2 [UPAR-251] |  |  | A (pIC50 values ≥8.0) | A (pKD values ≥ 8.8) | 
14 | Pent-[Cys-Cit-Lys(GdDOTA)-Tyr-Phe-Pro-4Tfp-Ile-Nva-Cys]-NH2 (Pentanoyl-C[Cit]K(GdDOTA)YFP[Pro(trans-4-F)]I[Nva]C-NH2; disulfide 1-10; not fully specified; also: Gd(III) complexed by DOTA) [UPAR-435] |  |  | A (pIC50 values ≥8.0) |  | A (pKD values ≥ 8.8)
15 | Pent-[Cys-Cit-Lys(InDOTA)-Tyr-Mpa-Pro-Hyp-Ile-Nva-Cys]-NH2 [UPAR-331] |  |  | A (pIC50 values ≥8.0) | A (pKD values ≥ 8.8) | 
16 | Pent-[Cys-Cit-Lys(InDOTA)-Tyr-Pcf-Pro-Hyp-Ile-Nva-Cys]-NH2 [UPAR-355] |  |  | A (pIC50 values ≥8.0) |  | A (pKD values ≥ 8.8)
17 | Pent-[Cys-Cit-Lys(InDOTA)-Tyr-Phe-Pro-Hyp-Ile-Nva-Cys]-NH2 (Pentanoyl-C[Cit]K(DOTA(In))YFP[Hyp]I[Nva]C-NH2; disulfide 1-10; not fully specified; also: In(III) complexed by DOTA) [UPAR-182] |  |  | A (pIC50 values ≥8.0) | A (pKD values ≥ 8.8) | 
18 | Pent-[Cys-Cit-Lys(InDOTA-PEG12)-Tyr-Phe-Pro-Hyp-Ile-Nva-Cys]-NH2 (Pentanoyl-C[Cit]KYFP[Hyp]I[Nva]C-NH2; disulfide 1-10; not fully specified (residue 3); printed as Pent-[Cys-Cit-Lys(InDOTA-PEG12)-Tyr-Phe-Pro-Hyp-Ile-Nva-Cys]-NH2; also: In(III) complexed by DOTA) [UPAR-404] |  |  | A (pIC50 values ≥8.0) |  | A (pKD values ≥ 8.8)
19 | Pent-[Cys-Cit-Lys(LaDOTA)-Ppa-Phe-Pro-Hyp-Ile-Nva-Cys]-NH2 [UPAR-296] |  |  | A (pIC50 values ≥8.0) | A (pKD values ≥ 8.8) | 
20 | Pent-[Cys-Cit-Lys(LaDOTA)-Tyr-Phe-Pro-Aib-Ile-Nva-Cys]-NH2 (Pentanoyl-C[Cit]K(LaDOTA)YFP[Aib]I[Nva]C-NH2; disulfide 1-10; not fully specified; also: La(III) complexed by DOTA) [UPAR-279] |  |  | A (pIC50 values ≥8.0) | A (pKD values ≥ 8.8) | 
21 | Pent-[Cys-Cit-Lys(LaDOTA)-Tyr-Thi-Pro-Hyp-Ile-Nva-Cys]-NH2 [UPAR-166] |  |  | A (pIC50 values ≥8.0) | A (pKD values ≥ 8.8) | 
22 | Pent-[Cys-Cit-Lys(LuDOTA)-Guf-Phe-Pro-Hyp-Ile-Nva-Cys]-NH2 [UPAR-350] |  |  | A (pIC50 values ≥8.0) |  | A (pKD values ≥ 8.8)

— patent EP4610269A1, “UROKINASE PLASMINOGEN ACTIVATOR SURFACE RECEPTOR (UPAR) LIGANDS FOR DIAGNOSTIC OR THERAPEUTIC USE” (3B Pharmaceuticals GmbH, priority 2024, dated 2025)
